Assay results taken from paper PMC9188596, “Structural basis of resistance to herbicides that target acetohydroxyacid synthase” (Nature Communications, 2022).
Values joined by “and” are separate entries in the source; they are usually repeats but may differ in a detail not shown here. Equal entries are not always repeated. Where two headings read alike, the source gives them in different places.

Legend:
AtAHAS P197L mutant [1] = target: T1, AtAHAS P197L mutant (Arabidopsis thaliana, UniProt P17597, P197L); test: biochemical
Method: (§1) Standard assays were performed using a continuous spectrophotometric method measuring the disappearance of pyruvate. The standard buffer contained 50 mM potassium phosphate, pH 7.2, 1 mM ThDP, 10 mM MgCl2, and 10 µM FAD. The concentration of pyruvate was in the range 100–160 mM, as described in the text, methods, or figure legends.
(§2) Supplementary Figure 6. Measurement of the Ki values for WT AtAHAS and the mutants.
(§3) The error bars represent the standard error of the mean of two independent replicates. [I] =
(§4) inhibitor concentration. Source data are provided with this paper.
(§5) (1 picture or pasted object on this page, not shown here)

AtAHAS P197T mutant [2] = target: T2, AtAHAS P197T mutant (Arabidopsis thaliana, UniProt P17597, P197T); test: biochemical
Method: as §1, §2, §3, §4, §5

AtAHAS S653T mutant [3] = target: T3, AtAHAS S653T mutant (Arabidopsis thaliana, UniProt P17597, S653T); test: biochemical
Method: as §1, §2, §3, §4, §5

AtAHAS W574L mutant [4] = target: T4, AtAHAS W574L mutant (Arabidopsis thaliana, UniProt P17597, W574L); test: biochemical
Method: as §1, §2, §3, §4, §5

WT AtAHAS [5] = target: T5, WT AtAHAS (Arabidopsis thaliana, UniProt P17597); type: biochemical
Method: as §1
(§6) AtAHAS was assayed in the standard assay buffer containing 160 mM pyruvate, at 30 °C. For AtAHAS activation the progress curve corresponding to the lag-phase was fitted to Eq. (8) of Lonhienne et al.[14]. For the time dependent accumulative inhibition of AtAHAS the progress curves were fitted to Equation 9 of Lonhienne et al.[12].
Supplementary Figure 8. Measurement of the rate constants of accumulative inhibition for WT AtAHAS and its mutants. The progress curves were fitted to the equation of accumulative inhibition (Equation 7 2). The rate constants of enzyme inactivation ( kiapp) and enzyme recovery (k3) were measured in triplicate. Source data are provided with this paper.

AtAHAS P197L mutant [6] = target: T1, AtAHAS P197L mutant; type: biochemical; conditions: NAI = no accumulative inhibition detected
Method: as §1, §6
(§7) Supplementary Figure 8. Measurement of the rate constants of accumulative inhibition for WT AtAHAS and its mutants. The progress curves were fitted to the equation of accumulative inhibition (Equation 7 2). The rate constants of enzyme inactivation ( kiapp) and enzyme recovery (k3) were measured in triplicate. Source data are provided with this paper. […]

AtAHAS P197T mutant [7] = target: T2, AtAHAS P197T mutant; type: biochemical; conditions: P197T, NAI = no accumulative inhibition detected
Method: as §1, §6, §7

AtAHAS S653T mutant [8] = target: T3, AtAHAS S653T mutant; type: biochemical
Method: as §1, §6, §7

AtAHAS W574L mutant [9] = target: T4, AtAHAS W574L mutant; type: biochemical; conditions: NAI = no accumulative inhibition detected
Method: as §1, §6, §7

WT AtAHAS [10] = target: T5, WT AtAHAS; conditions: ± standard error of the mean, cited from earlier work
[11] = Ki (Supplementary Figure 6), P197L, fit of % activity remaining vs [I], two independent replicates
[12] = Ki, P197L mutant, ± standard error of the mean
[13] = Ki, P197T mutant, ± standard error of the mean
[14] = Ki (Supplementary Figure 6), S653T, fit of % activity remaining vs [I], two independent replicates
[15] = Ki, S653T mutant, ± standard error of the mean
[16] = Ki (Supplementary Figure 6), W574L, fit of % activity remaining vs [I], two independent replicates
[17] = Ki, W574L mutant, ± standard error of the mean
[18] = individual replicate of triplicate
[19] = S653T, 160 mM pyruvate, 30 °C, ± SEM
[20] = S653T, individual replicate of triplicate

COc1cnc(OC)n2nc(NS(=O)(=O)c3c(OCC(F)F)cccc3C(F)(F)F)nc12 [PS, penoxsulam]
Ki (AtAHAS P197L mutant [1]; [11]): 81.9 ± 7.26 nM
Ki (AtAHAS P197L mutant [1]; [12]): 82 ± 7 nM
Ki (AtAHAS P197T mutant [2]; [13]): 85 ± 6.3 nM
Ki (AtAHAS S653T mutant [3]; [14]): 5.04 ± 2.24 nM
Ki (AtAHAS S653T mutant [3]; [15]): 5 ± 2.2 nM
Ki (AtAHAS W574L mutant [4]; [16]): 67100 ± 2970 nM
Ki (AtAHAS W574L mutant [4]; [17]): 67100 ± 3000 nM
increase in Ki / loss of affinity compared to WT (AtAHAS W574L mutant [4]; W574L vs WT): 35,000 fold
kiapp/k3 (efficiency of accumulative inhibition) (WT AtAHAS [5]): 87
k3 (rate of recovery) (WT AtAHAS [5]; 160 mM pyruvate, 30 °C, ± SEM): 0.014 ± 0.002 min⁻¹
kiapp (apparent rate of enzyme inactivation) (WT AtAHAS [5]; 160 mM pyruvate, 30 °C, ± SEM): 1.22 ± 0.09 min⁻¹
k3, single progress curve (Supplementary Figure 8) (WT AtAHAS [5]; [18]): 0.017 min⁻¹ and 0.011 min⁻¹ and 0.013 min⁻¹
kiapp, single progress curve (Supplementary Figure 8) (WT AtAHAS [5]; [18]): 1.4 min⁻¹ and 1.11 min⁻¹ and 1.17 min⁻¹
k3 (rate of recovery) (AtAHAS P197L mutant [6]; 160 mM pyruvate, 30 °C): NAI
kiapp (apparent rate of enzyme inactivation) (AtAHAS P197L mutant [6]; 160 mM pyruvate, 30 °C): NAI
kiapp/k3 (efficiency of accumulative inhibition) (AtAHAS P197L mutant [6]): NAI
k3 (rate of recovery) (AtAHAS P197T mutant [7]; 160 mM pyruvate, 30 °C): NAI
kiapp (apparent rate of enzyme inactivation) (AtAHAS P197T mutant [7]; 160 mM pyruvate, 30 °C): NAI
kiapp/k3 (efficiency of accumulative inhibition) (AtAHAS P197T mutant [7]): NAI
kiapp/k3 (efficiency of accumulative inhibition) (AtAHAS S653T mutant [8]; S653T): 126
efficiency of accumulative inhibition (kiapp/k3) compared to WT (in words) (AtAHAS S653T mutant [8]; S653T vs WT): increased
k3 (rate of recovery) (AtAHAS S653T mutant [8]; [19]): 0.015 ± 0.001 min⁻¹
kiapp (apparent rate of enzyme inactivation) (AtAHAS S653T mutant [8]; [19]): 1.89 ± 0.12 min⁻¹
k3, single progress curve (Supplementary Figure 8) (AtAHAS S653T mutant [8]; [20]): 0.013 min⁻¹ and 0.016 min⁻¹ and 0.015 min⁻¹
kiapp, single progress curve (Supplementary Figure 8) (AtAHAS S653T mutant [8]; [20]): 1.78 min⁻¹ and 2.1 min⁻¹ and 1.71 min⁻¹
k3 (rate of recovery) (AtAHAS W574L mutant [9]; 160 mM pyruvate, 30 °C): NAI
kiapp (apparent rate of enzyme inactivation) (AtAHAS W574L mutant [9]; 160 mM pyruvate, 30 °C): NAI
kiapp/k3 (efficiency of accumulative inhibition) (AtAHAS W574L mutant [9]): NAI
Ki (WT AtAHAS [10]; ref Lonhienne et al.[11]): 1.9 ± 0.9 nM

COc1cc(OC)nc(Sc2cccc(Cl)c2C(=O)O)n1 [PTB, pyrithiobac]
Ki (AtAHAS P197L mutant [1]; [11]): 1950 ± 194 nM
Ki (AtAHAS P197L mutant [1]; [12]): 2000 ± 200 nM
Ki (AtAHAS P197T mutant [2]; Ki (Supplementary Figure 6), P197T, fit of % activity remaining vs [I], two independent replicates): 1460 ± 282 nM
Ki (AtAHAS P197T mutant [2]; [13]): 1500 ± 300 nM
Ki (AtAHAS S653T mutant [3]; [14]): 218 ± 15.8 nM
Ki (AtAHAS S653T mutant [3]; [15]): 218 ± 15.8 nM
Ki (AtAHAS W574L mutant [4]; [16]): 91200 ± 8190 nM
Ki (AtAHAS W574L mutant [4]; [17]): 91200 ± 8200 nM
Ki (WT AtAHAS [10]; ref Garcia et al.[13]): 179 ± 12 nM
